Test results taken from patent EP0675109A1, “N-SUBSTITUTED INDOLE DERIVATIVE” (TAISHO PHARMACEUTICAL CO. LTD, priority 1992, dated 1994).

Key:
α1-adrenergic receptor = assay: α1-Adrenergic receptor binding test ([³H] prazosin displacement, rat brain membrane preparation); conditions: 0.6 nM [³H] prazosin, 25 °C for 30 minutes, read-out: IC₅₀
Experimental: The α1-adrenergic receptor binding reaction was performed in accordance with the method of Greengrass and Bremner [Eur. J. Pharmacol., 55, 323 (1979)].
A rat was decapitated, and the brain was taken out and homogenized with 30 volumes of 50 Mm Tris hydrochloride (Ph 7.4). The homogenate was centrifuged at 1,000 x g for 5 minutes and the supernatant was further centrifuged at 48,000 x g for 20 minutes. The precipitate thus obtained was suspended in 50 mM Tris hydrochloride (pH 7.4) and recentrifuged at 48,000 x g for 20 minutes. The obtained precipitate was suspended in 50 mM Tris hydrochloride (pH 7.4) in such a manner as to give a concentration of 1.0 mg/ml protein. Thus an α1-adrenergic receptor preparation was obtained.
To 1.0 ml portions of this receptor preparation were added 0.6 nM [³H] prazosin and specimens at various concentrations, and the mixture was allowed to react at 25 °C for 30 minutes.
After the completion of the reaction, each reaction mixture was subjected to a rapid filtration through a glass filter (Whatman GF/B) and the filter was washed with 3 ml portions of 50 mM tris hydrochloride (pH 7.4) thrice. The radioactivity on the filter was measured with a liquid scintillation counter.
The difference between the radioactivity in the absence of any specimen and the radioactivity obtained in the presence of 10 µM of prazosin was referred to as the specific binding of the control. The ratio of the radioactivity obtained at the time of adding each specimen to the control radioactivity was determined and plotted against the specimen concentration. Then the fifty percent inhibitory concentration (IC₅₀) of each specimen was calculated by the curve fitting method with the use of a computer.

dog (beagle) = assay: Depressor activity test (telemetry of blood pressure and cardiac rate in conscious dogs after oral administration); assay type: in vivo
Experimental: The depressor activity test was performed in accordance with the method described in Journal of Physiology, 448, 307 - 320 (1992).
Under pentobarbital anesthesia, a catheter for detecting and transmitting the blood pressure was embedded in a branch of the femoral artery of a dog (weighing 10 kg, beagle, each group having 4 animals). When the animal restored from the postoperative aggression, a powder of the compound 1 encapsulated in a cellulose capsule (3 mg/kg) was orally administered to the animal, which had been fasted, without anesthesia or restriction.
Via the catheter embedded in the body of the beagle, the cardiac rate was measured from the blood pressure and the blood pressure pulse wave in accordance with the telemetry method. The blood pressure lowering effect attained the maximum level 30 minutes after the administration and the blood pressure was lowered by about 12 mmHg. This depressor activity persisted even 24 hours after the administration.

[1] = system: smooth muscle of the beagle prostate gland; assay: Urination disorder-relieving activity test (phenylephrine-induced contraction of isolated prostate smooth muscle, Magnus' method); assay type: cell-based, dog; conditions: specimen 10⁻⁸ to 10⁻⁶ M for 15 minutes, against cumulative phenylephrine, calculated from two dose/reaction curves, read-out: IC₅₀
Experimental: The urination disorder-relieving activity test was performed in accordance with the method described in FEDERATION PROCEEDINGS, 45 (11), (1986). Under pentobarbital anesthesia, the prostate gland of a male dog (weighing 7 to 10 kg, beagle, each group having 3 animals) was taken out. Then a preparation of the smooth muscle of the beagle prostate gland thus taken out was prepared in a conventional manner and the isometric tensile strength was measured by Magnus' method. After incubating for 60 to 90 minutes, phenylephrine (10⁻⁷ to 10⁻⁴ M) was accumulatively administered to give a control dose/reaction curve. After washing away the phenylephrine, the preparation was treated with a specimen (10⁻⁸ to 10⁻⁶ M) for 15 minutes. In the presence of the specimen, phenylephrine (10⁻⁷ to 10⁻³ M) was accumulatively administered again and a dose/reaction curve was obtained in the same manner. Based on these two dose/reaction curves, the IC₅₀ of each specimen was calculated.

[2] = 3 mg/kg orally, time after the administration

CCC(=O)Cn1cc(CCN2CCN(c3ccccc3OC)CC2)c2ccccc21 [compound 1, 3-[2-(4-(2-methoxyphenyl)piperadinyl)ethyl]-1-(2-oxobutyl)indole] was tested. Which IC50 (α1-adrenergic receptor) did it give?
Its IC50 is 7.75 nM.

What about the cardiac rate (dog (beagle); 3 mg/kg orally) of the same molecule?
Its cardiac rate is “somewhat lowered”.

What about the “blood pressure was lowered (maximum level)” value (dog (beagle); 3 mg/kg orally (powder in cellulose capsule), fasted, without anesthesia, 30 minutes after the administration) of the same molecule?
The value was “about 12 mmHg”.

What about the “persistence of depressor activity” value (dog (beagle); [2]) of the same molecule?
The value was at least 24 h.

What about the “time at which the blood pressure lowering effect attained the maximum level” value (dog (beagle); [2]) of the same molecule?
Its value is 30 min.

And the potency estimated from few doses [1]?
The potency estimated from few doses was 1.4 nM.

With CCC(=O)Cn1cc(CCN2CCN(c3cccc(C)c3C)CC2)c2ccccc21 [compound 4] as the molecule, how does the IC50 (α1-adrenergic receptor) read?
Its IC50 is 3.93 nM.

CCC(=O)Cn1cc(CCN2CCN(c3ccc(F)cc3)CC2)c2ccccc21 [compound 8] was tested. Which IC50 (α1-adrenergic receptor) did it give?
The IC50 was 5.13 nM.

For CCCC(=O)Cn1cc(CCN2CCN(c3ccccc3OC)CC2)c2ccccc21 [compound 14], which IC50 (α1-adrenergic receptor) is on record?
Its IC50 is 0.801 nM.

How did the IC50 (α1-adrenergic receptor) turn out when COc1ccccc1N1CCN(CCc2cn(CC(=O)C(C)C)c3ccccc23)CC1 [compound 15] was run?
Its IC50 is 0.679 nM.

For COc1ccccc1N1CCN(CCCNc2cc(=O)n(C)c(=O)n2C)CC1 [urapidil, reference compound], which IC50 (α1-adrenergic receptor) is on record?
Its IC50 is 741 nM.

And the potency estimated from few doses [1]?
The potency estimated from few doses was 53.7 nM.
